Results published in publication PMC9851200, “Multiparameter phenotypic screening for endogenous TFEB and TFE3 translocation identifies novel chemical series modulating lysosome function” (Autophagy, 2022).
“Also recorded” adds a separate entry of the source. Like-named read-outs stand apart in the source and are kept apart here.

Experiments:
SH-SY5Y cells [1] = test system: SH-SY5Y cells
Text: The PKIS2 Library was supplied by The Structural Genomics Consortium at the University of North Carolina at Chapel Hill.

SH-SY5Y cells [2] = assay: AK (adenylate kinase) release ToxiLight cytotoxicity assay; details: for Cellular toxicity (AK release and nuclear count, in words): SH-SY5Y, 24 h treatment
Experimental: Total cell lysis with 5 µL 5% Triton-X 100 (Sigma-Aldrich, T8787) is used as a positive control for the assay and toxicity is expressed as a percentage of luminescence under DMSO conditions.

SH-SY5Y cells [3] = assay: Nuclear count from microscopy images (cellular growth and toxicity)
endogenous TFE3 = assay: TFE3 nuclear translocation, immunocytochemistry high-content imaging; type: cell-based; details: for Best-Fit Values Span: TFE3 assay concentration response; for Best-Fit Values Span / EC50: 24 h; for EC50: TFE3 assay, read-out: Best-Fit Values EC50 (converted); for Summary: activity in TFE3 assays compared with original NK-140, OT activity
endogenous TFEB = assay: TFEB nuclear translocation, immunocytochemistry high-content imaging; type: cell-based
[4] = PKIS2 primary screening, DQ Red BSA intensity
[5] = PKIS2 primary screening, DQ Red BSA spot count
[6] = SH-SY5Y, concentration-dependent

| SMILES | DQ Intensity (SH-SY5Y cells [1]; PKIS2 primary screening) | DQ Spot (SH-SY5Y cells [1]; PKIS2 primary screening) | AK (SH-SY5Y cells [2]; PKIS2 primary screening) | Nuclear Count (SH-SY5Y cells [3]; PKIS2 primary screening) | TFE3 % (endogenous TFE3; PKIS2 primary screening) | TFEB % (endogenous TFEB; PKIS2 primary screening) | DQ Intensity (SH-SY5Y cells [1]; [4]) | DQ Spot (SH-SY5Y cells [1]; [5]) | other results |
| --- | --- | --- | --- | --- | --- | --- | --- | --- | --- |
| Nc1ncnc2c1ncn2-c1ccc(Cl)cc1 [UNC10225203A] | 65.28 | 88.83 | 145.27 | 80.96 | 14.23% | 5.10% | – | – | – |
| C[C@@H]1CCCCN1c1cc(-c2ccc3c(N)n[nH]c3c2)nc(N)n1 [GSK2258759] | – | – | 88.63 | 88.84 | 12.52% | 3.40% | 61.15 | 84.49 | – |
| Fc1ccc(-c2nc3n(c2-c2ccncc2)CCS3)cc1 [UNC10225163A] | – | – | 64.81 | 90.62 | 5.95% | 3.29% | 100.39 | 119.65 | – |
| COc1ccc(Nc2nccc(N3CCC(NC(=O)c4cc5ccccc5s4)C3)n2)cc1 (stereo not drawn) [GSK1379738] | – | – | 106.01 | 101.04 | 9.69% | 5.33% | 52.05 | 80.56 | – |
| COc1ccc(Nc2nccc(-c3cccc(NC(=O)c4cc5cc(F)ccc5[nH]4)c3)n2)cc1 [GSK1229782] | – | – | 91.24 | 89.95 | 14.29% | 2.71% | 93.16 | 110.99 | – |
| Cc1nn2c(=O)cc(N3CCOCC3)nc2n1Cc1cccc(Cl)c1Cl [UNC10225178A] | 66.02 | 117.74 | 116.91 | 93.42 | 28.29% | 7.97% | – | – | – |
| Cc1ccc(-c2cc(-c3c[nH]nc3-c3ccccn3)ccn2)cc1 [UNC10225125A] | – | – | 116.20 | 147.86 | 5.68% | 3.15% | 86.68 | 93.68 | – |
| Cc1occc1-c1ncc(OC[C@@H](N)Cc2c[nH]c3ccccc23)cc1-c1ccc2[nH]nc(C)c2c1.O=C(O)C(F)(F)F [UNC10243880A] | 77.42 | 58.66 | 148.86 | 69.84 | 39.74% | 19.77% | – | – | – |
| Cl.c1ccc(-c2n[nH]cc2-c2ccnc(-c3ccc(CN4CCOCC4)cc3)c2)nc1 [UNC10225251A] | – | – | 76.02 | 93.63 | 7.21% | 7.11% | 80.00 | 92.60 | – |
| O=C(Nc1cccc(-c2nn3ncccc3c2-c2ccnc(Nc3ccccc3)n2)c1)c1c(F)cccc1F [UNC10225232A] | 89.13 | 101.26 | 143.10 | 127.09 | 11.89% | 3.87% | – | – | – |
| Cc1cn2c(=O)cc(N3CCOCC3)nc2n1Cc1cccc(Cl)c1Cl [UNC10225415A] | 62.82 | 98.81 | 43.75 | 117.08 | 10.27% | 6.30% | – | – | – |
| Nc1nc(-c2ccc3c(N)n[nH]c3c2)cc(N2CCCC2)n1 [GSK2227430] | – | – | 104.62 | 85.02 | 14.08% | 3.47% | 87.93 | 104.79 | – |
| COc1cc(Nc2nccc(N3CCC(NC(=O)C(C)c4ccc(Cl)cc4)C3)n2)cc(OC)c1OC (stereo not drawn) [GSK1379757] | – | – | 97.54 | 80.40 | 15.24% | 5.14% | 100.22 | 95.49 | – |
| N#Cc1ccc(-c2cc(-c3c[nH]nc3-c3ccccn3)ccn2)cc1 [UNC10225072A] | – | – | 65.14 | 116.96 | 14.52% | 2.62% | 58.59 | 75.50 | – |
| Nc1ncnc2c1ncn2-c1cccc2ccccc12 [UNC10225410A] | 80.92 | 97.35 | 106.56 | 88.30 | 8.71% | 7.46% | – | – | – |
| CSc1nn2c(=O)cc(N3CCOCC3)nc2n1Cc1cccc(C(F)(F)F)c1C [UNC10243881A] | 80.81 | 106.13 | 100.35 | 93.06 | 9.67% | 6.63% | – | – | – |

| SMILES | DQ Intensity (SH-SY5Y cells [1]; PKIS2 primary screening) | DQ Spot (SH-SY5Y cells [1]; PKIS2 primary screening) | AK (SH-SY5Y cells [2]; PKIS2 primary screening) | Nuclear Count (SH-SY5Y cells [3]; PKIS2 primary screening) | TFE3 % (endogenous TFE3; PKIS2 primary screening) | TFEB % (endogenous TFEB; PKIS2 primary screening) | DQ Intensity (SH-SY5Y cells [1]; [4]) | DQ Spot (SH-SY5Y cells [1]; [5]) | other results |
| --- | --- | --- | --- | --- | --- | --- | --- | --- | --- |
| O=C(NCCNc1ccnc(Nc2ccc(F)cc2)n1)Nc1ccccc1F [GSK1379880] | – | – | 82.91 | 133.27 | 7.81% | 3.19% | 104.78 | 97.82 | – |
| O=C(NCc1cccs1)c1cc(C(=O)c2c(Cl)cccc2Cl)c[nH]1 [UNC10225502A] | – | – | – | – | – | – | – | – | DQ Intensity (SH-SY5Y cells [1]; PKIS2 primary screen, DQ Red BSA intensity): 112.22; DQ Spot (SH-SY5Y cells [1]; PKIS2 primary screen, DQ Red BSA spot count): 106.20; AK (SH-SY5Y cells [2]; PKIS2 primary screen): 136.34; Nuclear Count (SH-SY5Y cells [3]; PKIS2 primary screen): 105.30; TFE3 % (endogenous TFE3; PKIS2 primary screen): 7.89%; TFEB % (endogenous TFEB; PKIS2 primary screen): 6.92% |
| COc1cc2ncnc(Nc3ccc(OCc4ccccc4Br)c(Cl)c3)c2cc1OC.Cl [UNC10225261A] | – | – | 120.37 | 123.73 | 8.49% | 4.00% | 96.30 | 117.72 | – |
| CC(=O)N1CCN(c2ccc(Nc3nccc(-c4sc(C(C)C)nc4-c4cccc(NS(=O)(=O)c5cccc(Cl)c5)c4)n3)cn2)CC1 [UNC10225481A] | 100.90 | 115.22 | 73.54 | 128.41 | 9.55% | 3.72% | – | – | – |
| Cl.Oc1ccc(-c2nc(-c3ccccc3)[nH]c2-c2ccncc2)cc1 [UNC10225482A] | – | – | 90.33 | 92.35 | 9.08% | 7.63% | 99.60 | 108.10 | – |
| COc1ccc(Nc2nccc(NCCNC(=O)c3cc4ccccc4s3)n2)cc1 [GSK1379896] | – | – | 100.12 | 88.87 | 17.76% | 5.04% | 100.56 | 107.99 | – |
| Cn1cc(-c2ccc3c(c2)CCN3C(=O)Cc2cccc(F)c2)c2c(N)ncnc21 [UNC10225297A] | 118.40 | 112.51 | 109.17 | 104.97 | 15.69% | 6.82% | – | – | – |
| C[C@@H](Oc1cc(-n2cnc3cc(-c4cnn(C)c4)ccc32)sc1C(N)=O)c1ccccc1Cl [UNC10225416A] | – | – | 104.83 | – | 8.07% | 18.53% | – | – | DQ Intensity (SH-SY5Y cells [1]): 219.18; DQ Spot (SH-SY5Y cells [1]): 124.35 |
| Cc1cnc(N)c(/C=C/c2cncc(C(=O)NCCc3ccc(Cl)cc3Cl)c2)c1.Cl [UNC10225238A] | – | – | – | – | – | – | 95.52 | 99.30 | – |
| Cc1cccc(-c2nc(Nc3ccc4ncn(C)c4c3)c3ccccc3n2)n1 [NK173] | – | – | – | – | – | – | – | – | Best-Fit Values Span (endogenous TFE3; SH-SY5Y): 80.89; EC50 (endogenous TFE3; SH-SY5Y, second EC50 of biphasic/bell-shaped fit or OT (off-target) activity, unit inferred): 1.92 µM; Summary (endogenous TFE3): Only OT activity |
| CC(C)c1nc(-c2cccc(NS(=O)(=O)c3ccccc3)c2)c(-c2ccnc(Nc3ccc4c(c3)CN(C)CC4)n2)s1 [UNC10225068A] | 3.98 | 39.66 | 114.97 | 76.87 | 63.29% | – | – | – | – |
| CC(=O)Nc1ccc(C(=O)Nc2ccccc2N)cc1 [CI-994, Tacedinaline, reference compound] | – | – | – | – | – | – | – | – | DQ Red BSA signal (in words) (SH-SY5Y cells [1]; SH-SY5Y, 24 h treatment): robustly increase DQ Red BSA puncta signal; DQ Red BSA spot count / active lysosome count (in words) (SH-SY5Y cells [1]; SH-SY5Y, 24 h treatment): increases |
| O=C1NCCCc2c1oc1ccc(O)cc21 [CID755673, reference compound] | – | – | – | – | – | – | – | – | DQ Red BSA signal (in words) (SH-SY5Y cells [1]): no TFEB and TFE3 translocation, alteration in DQ Red BSA signal or toxicity; also recorded: no effect across these assays; Cellular toxicity (AK release and nuclear count, in words) (SH-SY5Y cells [2]): no TFEB and TFE3 translocation, alteration in DQ Red BSA signal or toxicity; also recorded: no effect across these assays; TFE3 translocation (in words) (endogenous TFE3): no TFEB and TFE3 translocation; also recorded: no effect across these assays; TFEB translocation (in words) (endogenous TFEB): no TFEB and TFE3 translocation; also recorded: no effect across these assays |
| CCN(CC)CCCC(C)Nc1ccnc2cc(Cl)ccc12 (stereo not drawn) [chloroquine, reference compound] | – | – | – | – | – | – | – | – | DQ Red BSA signal (in words) (SH-SY5Y cells [1]; SH-SY5Y, 24 h treatment): greatly reduced; DQ Red BSA spot count / active lysosome count (in words) (SH-SY5Y cells [1]; SH-SY5Y, 24 h treatment): reduces; TFE3 translocation from the cytoplasm to the nucleus (% nTFE3) (endogenous TFE3; [6]): > 80%; TFEB translocation from the cytoplasm to the nucleus (% nTFEB) (endogenous TFEB; [6]): > 80% |
| Cc1cccc(-c2nc(Nc3ccc4[nH]ccc4c3)c3ccccc3n2)n1 [NK218] | – | – | – | – | – | – | – | – | Best-Fit Values Span (endogenous TFE3; SH-SY5Y): 20.78; EC50 (endogenous TFE3; SH-SY5Y, µM): 0.42 µM; Summary (endogenous TFE3): More Potent |
| O=C(Nc1ccc(CN2CCOCC2)cc1)c1ccc(-c2cccc(Cl)c2)o1 [CID2011756, reference compound] | – | – | – | – | – | – | – | – | DQ Red BSA signal (in words) (SH-SY5Y cells [1]): some reduction of DQ Red BSA signal; Lysosomal toxicity (in words) (SH-SY5Y cells [1]; human): marked lysosomal and cellular toxicity at 20 µM; Cellular toxicity (AK release and nuclear count, in words) (SH-SY5Y cells [2]): marked lysosomal and cellular toxicity at 20 µM; TFE3 translocation (in words) (endogenous TFE3): some TFEB and TFE3 translocation only at 20 µM; also recorded: induced TFEB and TFE3 translocation only alongside marked lysosomal and cellular toxicity at 20 µM; TFEB translocation (in words) (endogenous TFEB): some TFEB and TFE3 translocation only at 20 µM; also recorded: induced TFEB and TFE3 translocation only alongside marked lysosomal and cellular toxicity at 20 µM |
